In the SangsterLogP compilation:

experiment: method code SF-AS, from DOI: 10.1021/jf00085a044

Row | logP | Structure (SMILES)
1 | 2.18 | CN(C)C(=O)Nc1ccc(Oc2nnnn2C2CCCCC2)cc1
2 | 2.08 | CN(C)C(=O)Nc1ccc(Oc2nnn(C(C)(C)C)n2)cc1
3 | 1.1 | CCn1nnc(Oc2ccc(NC(=O)N(C)C)cc2)n1
4 | 1.5 | CCn1nnnc1Oc1ccc(NC(=O)N(C)C)cc1Cl
5 | 2.67 | CN(C)C(=O)Nc1ccc(Oc2nnn(C3CCCCC3)n2)cc1
6 | 0.28 | CN(C)C(=O)Nc1ccc(Oc2nnn(CCC#N)n2)cc1
7 | 3.96 | CCCCCCCCn1nnnc1Oc1ccc(NC(=O)N(C)C)cc1
8 | 0.63 | CN(C)C(=O)Nc1ccc(Oc2nnn(C)n2)cc1
9 | 0.7 | CCOC(=O)Cn1nnnc1Oc1ccc(NC(=O)N(C)C)cc1

experiment: not given

Row | logP | Structure (SMILES)
10 | 2.25 | CN(C)C(=O)Nc1ccc(Oc2nnnn2C(C)(C)C)c(Cl)c1
11 | 1 | C#CCn1nnnc1Oc1ccc(NC(=O)N(C)C)cc1
12 | 1.45 | CC(C)n1nnc(Oc2ccc(NC(=O)N(C)C)cc2)n1
13 | 1.7 | CN(C)C(=O)Nc1ccc(Oc2nnnn2Cc2ccccc2)cc1
14 | 1.65 | C#CCn1nnc(Oc2ccc(NC(=O)N(C)C)cc2)n1
15 | 1.7 | CCn1nnc(Oc2ccc(NC(=O)N(C)C)cc2Cl)n1
16 | 4.4 | CCCCCCCCn1nnc(Oc2ccc(NC(=O)N(C)C)cc2)n1
17 | 2.25 | CN(C)C(=O)Nc1ccc(Oc2nnn(Cc3ccccc3)n2)cc1
18 | 1.65 | CN(C)C(=O)Nc1ccc(Oc2nnnn2C(C)(C)C)cc1
19 | 1.65 | C=CCn1nnc(Oc2ccc(NC(=O)N(C)C)cc2)n1
20 | 1 | C=CCn1nnnc1Oc1ccc(NC(=O)N(C)C)cc1
